Assay: xn = mol fraction of the nth substance listed
Conditions: 263.15 K, Fluid (supercritical or subcritical phases), Vibrating tube method, x1 = 0.97

O=C=O [carbon dioxide] + CO
Conditions | mass density [kg/m3]
13625 kPa | 1031.69
13650 kPa | 1031.77
13675 kPa | 1031.94
13700 kPa | 1031.97
13725 kPa | 1032.1
13750 kPa | 1032.18
13775 kPa | 1032.26
13800 kPa | 1032.34
13825 kPa | 1032.42
13850 kPa | 1032.53
13875 kPa | 1032.61
13900 kPa | 1032.75
13925 kPa | 1032.83
13950 kPa | 1032.91
13975 kPa | 1032.99
14000 kPa | 1033.08
14025 kPa | 1033.16
14050 kPa | 1033.24
14075 kPa | 1033.38
14100 kPa | 1033.48
14125 kPa | 1033.57
14150 kPa | 1033.65
14175 kPa | 1033.73
14200 kPa | 1033.81
14225 kPa | 1033.9
14250 kPa | 1033.97
14275 kPa | 1034.13
14300 kPa | 1034.22
14325 kPa | 1034.3
14350 kPa | 1034.38
14375 kPa | 1034.46
14400 kPa | 1034.54
14425 kPa | 1034.62
14450 kPa | 1034.7
14475 kPa | 1034.86
14500 kPa | 1034.95
14525 kPa | 1035.03
14550 kPa | 1035.11
14575 kPa | 1035.19
14600 kPa | 1035.28
14625 kPa | 1035.36
14650 kPa | 1035.44
14675 kPa | 1035.52
14700 kPa | 1035.62
14725 kPa | 1035.77
14750 kPa | 1035.83
14775 kPa | 1035.93
14800 kPa | 1036.01
14825 kPa | 1036.09
14850 kPa | 1036.17
14875 kPa | 1036.25
14900 kPa | 1036.34
14925 kPa | 1036.42
14950 kPa | 1036.51
14975 kPa | 1036.63
15000 kPa | 1036.74
15025 kPa | 1036.78
15050 kPa | 1036.9
15075 kPa | 1036.96
15100 kPa | 1037.07
15125 kPa | 1037.15
15150 kPa | 1037.23
15175 kPa | 1037.31
15200 kPa | 1037.39
15225 kPa | 1037.5
15250 kPa | 1037.56
15275 kPa | 1037.66
15300 kPa | 1037.72
15325 kPa | 1037.8
15350 kPa | 1037.91
15375 kPa | 1038.01
15400 kPa | 1038.07
15425 kPa | 1038.19
15450 kPa | 1038.28
15475 kPa | 1038.37
15500 kPa | 1038.45
15525 kPa | 1038.53
15550 kPa | 1038.61
15575 kPa | 1038.7
15600 kPa | 1038.78
15625 kPa | 1038.86
15650 kPa | 1038.94
15675 kPa | 1039.02
15700 kPa | 1039.1
15725 kPa | 1039.19
15750 kPa | 1039.26
15775 kPa | 1039.35
15800 kPa | 1039.43
15825 kPa | 1039.51
15850 kPa | 1039.61
15875 kPa | 1039.7
15900 kPa | 1039.79
15925 kPa | 1039.88
15950 kPa | 1039.97
15975 kPa | 1040.06
16000 kPa | 1040.16
16025 kPa | 1040.2
16050 kPa | 1040.31
16075 kPa | 1040.4
16100 kPa | 1040.49
16125 kPa | 1040.57
16150 kPa | 1040.65
16175 kPa | 1040.73
16200 kPa | 1040.81
16225 kPa | 1040.89
16250 kPa | 1040.97
16275 kPa | 1041.05
16300 kPa | 1041.16
16325 kPa | 1041.25
16350 kPa | 1041.32
16375 kPa | 1041.38
16400 kPa | 1041.46
16425 kPa | 1041.59
16450 kPa | 1041.66
16475 kPa | 1041.72
16500 kPa | 1041.79
16525 kPa | 1041.91
16550 kPa | 1041.95
16575 kPa | 1042.08
16600 kPa | 1042.19
16625 kPa | 1042.27
16650 kPa | 1042.33
16675 kPa | 1042.38
16700 kPa | 1042.51
16725 kPa | 1042.57
16750 kPa | 1042.68
16775 kPa | 1042.75
16800 kPa | 1042.82
16825 kPa | 1042.91
16850 kPa | 1043.01
16875 kPa | 1043.08
16900 kPa | 1043.17
16925 kPa | 1043.24
16950 kPa | 1043.33
16975 kPa | 1043.4
17000 kPa | 1043.49
17025 kPa | 1043.57
17050 kPa | 1043.64
17075 kPa | 1043.74
17100 kPa | 1043.82
17125 kPa | 1043.9
17150 kPa | 1043.98
17175 kPa | 1044.06
17200 kPa | 1044.14
17225 kPa | 1044.22
17250 kPa | 1044.31
17275 kPa | 1044.39
17300 kPa | 1044.44
17325 kPa | 1044.55
17350 kPa | 1044.63
17375 kPa | 1044.71
17400 kPa | 1044.79
17425 kPa | 1044.87
17450 kPa | 1044.94
17475 kPa | 1045.04
17500 kPa | 1045.12
17525 kPa | 1045.2
17550 kPa | 1045.28
17575 kPa | 1045.33
17600 kPa | 1045.44
17625 kPa | 1045.52
17650 kPa | 1045.61
17675 kPa | 1045.69
17700 kPa | 1045.77
17725 kPa | 1045.81
17750 kPa | 1045.89
17775 kPa | 1045.97
17800 kPa | 1046.04
17825 kPa | 1046.11
17850 kPa | 1046.26
17875 kPa | 1046.32
17900 kPa | 1046.37
17925 kPa | 1046.44
17950 kPa | 1046.51
17975 kPa | 1046.58
18000 kPa | 1046.66
18025 kPa | 1046.79
18050 kPa | 1046.85
18075 kPa | 1046.9
18100 kPa | 1046.98
18125 kPa | 1047.07
18150 kPa | 1047.15
18175 kPa | 1047.23
18200 kPa | 1047.31
18225 kPa | 1047.37
18250 kPa | 1047.47
18275 kPa | 1047.55
18300 kPa | 1047.62
18325 kPa | 1047.69
18350 kPa | 1047.75
18375 kPa | 1047.82
18400 kPa | 1047.88
18425 kPa | 1047.96
18450 kPa | 1048.04
18475 kPa | 1048.11
18500 kPa | 1048.2
18525 kPa | 1048.28
18550 kPa | 1048.31
18575 kPa | 1048.43
18600 kPa | 1048.53
18625 kPa | 1048.58
18650 kPa | 1048.64
18675 kPa | 1048.74
18700 kPa | 1048.83
18725 kPa | 1048.85
18750 kPa | 1048.93
18775 kPa | 1048.93
18800 kPa | 1049.06
18825 kPa | 1049.09
18850 kPa | 1049.34
18875 kPa | 1049.42
18900 kPa | 1049.5
18925 kPa | 1049.58
18950 kPa | 1049.66
18975 kPa | 1049.74
19000 kPa | 1049.82
19025 kPa | 1049.91
19050 kPa | 1049.99
19075 kPa | 1050.07
19100 kPa | 1050.15
19125 kPa | 1050.23
19150 kPa | 1050.31
19175 kPa | 1050.39
19200 kPa | 1050.47
19225 kPa | 1050.56
19250 kPa | 1050.63
19275 kPa | 1050.72
19300 kPa | 1050.8
19325 kPa | 1050.88
19350 kPa | 1050.96
19375 kPa | 1051.04
19400 kPa | 1051.12
19425 kPa | 1051.21
19450 kPa | 1051.29
19475 kPa | 1051.35
19500 kPa | 1051.45
19525 kPa | 1051.53
19550 kPa | 1051.58
19575 kPa | 1051.69
19600 kPa | 1051.77
19625 kPa | 1051.83
19650 kPa | 1051.89
19675 kPa | 1052.02

— the NIST ThermoML archive (doi:10.1016/j.jct.2016.03.026)
